Measurements: article PMC11847361, “Design and screening of novel molecular compounds targeting lactate dehydrogenase of Babesia microti” (Parasites & Vectors, 2025)
Entries after “also recorded” stand apart in the source; their conditions may differ. Like-named read-outs stand apart in the source and are kept apart here.

Columns and labels:
[1] = tested on: Plasmodium falciparum LDH; set-up: method as in PMID 9748363; conditions: cited from earlier work
human LDH-M (LDH-A4) = biological target: human LDH-M (LDH-A4); set-up: method as in PMID 9748363; conditions: cited from earlier work
[2] = tested on: LDH activity in B. microti; conditions: cited from earlier work; for IC50: previous work
rBmLDH [3] = biological target: T1, rBmLDH (Babesia microti, UniProt I7J7V6); type: biochemical; conditions: pH 9.5; read-out: BmLDH IC50
T1 sequence (I7J7V6 1-332): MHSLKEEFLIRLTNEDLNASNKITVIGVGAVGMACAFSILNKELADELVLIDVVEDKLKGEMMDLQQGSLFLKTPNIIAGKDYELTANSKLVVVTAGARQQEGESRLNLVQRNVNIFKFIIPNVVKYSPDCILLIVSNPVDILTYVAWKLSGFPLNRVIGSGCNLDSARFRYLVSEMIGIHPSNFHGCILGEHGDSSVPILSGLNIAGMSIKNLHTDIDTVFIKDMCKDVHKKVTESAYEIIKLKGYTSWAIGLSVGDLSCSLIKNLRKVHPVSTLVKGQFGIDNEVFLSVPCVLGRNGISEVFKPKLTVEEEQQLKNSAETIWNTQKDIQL

in vitro = type: cell-based; conditions: African green monkey
Protocol: The mycoplasma-free Vero cell line (ATCC-CCL-81, immortalized cells) was cryopreserved in liquid nitrogen with DMSO at the National Key Laboratory of Agricultural Microbiology, Huazhong Agricultural University, China. The cytotoxicity of compounds TA and TB was assessed in Vero cells using the CCK-8 assay (Vazyme). Briefly, Vero cells (100 µL, 10,000 cells/well) were cultured in Dulbecco’s modified Eagle medium (DMEM) supplemented with 10% fetal bovine serum (FBS) and 100 U/mL penicillin–streptomycin at 37 ℃ with 5% CO2 for 24 h. The cells were then treated with varying concentrations of TA (2000, 1000, 500, 250, and 125 μM) or TB (800, 400, 200, 100, and 50 μM) for 72 h. After the treatment period, the medium containing TA and TB was replaced with fresh medium. Subsequently, 10 µL of CCK-8 solution was added to each well, and the plate was incubated for an additional 3 h. Absorbance was measured at 450 nm using a multifunctional enzyme marker (Envision, PE, USA). Stock solutions of TA and TB were prepared at a concentration of 100 mM in absolute ethanol. Doxorubicin hydrochloride at 40 µM served as the positive control, while 2% absolute ethanol served as the negative control. The concentration required to achieve 50% cytotoxicity (CC50) values were calculated using GraphPad Prism 8, and all cytotoxicity assays were performed in triplicate.

B. microti = experiment: In vitro growth inhibition of B. microti; type: cell-based; conditions: Babesia microti, Erythrocyte, 72 h, read-out: B. microti IC50 (growth inhibition)
Protocol: Once parasitemia reached 60%, blood was collected from the tails of the mice, and the initial percent parasitized erythrocytes (PPE) was diluted to approximately 0.8% using healthy mouse erythrocytes. […] Cultures were incubated for 72 h at 37 ℃ in a gas mixture of 2% O2, 5% CO2, and 93% N2 [23, 24]. After incubation, blood smears were prepared, stained with Giemsa, and the parasitemia rate was calculated. All experiments were performed in triplicate.

rBmLDH [4] = biological target: T1, rBmLDH; type: binding; conditions: for Kd: read-out: equilibrium dissociation constant (Kd)

Compound | IC50 [2] [µM] | IC50 (rBmLDH [3]) [µM] | CC50 at 72 h (in vitro) [µM] | binding capacity/affinity to rBmLDH compared with lead compound DHNA (rBmLDH [4]) | Kd (rBmLDH [4]) [µM] | also measured
CCCc1c(O)c(O)c(C(=O)O)c2cc(Cc3ccccc3)c(C)cc12 [Compound 11F] |  |  |  |  |  | Ki [1]: 0.3 µM; Ki (human LDH-M (LDH-A4)): 0.05 µM
O=C(O)c1cc2cc(Br)ccc2c(Br)c1O [DBHCA, 1,6-dibromo-2-hydroxynapthalene 3-carboxylic acid] | 52.7 |  |  |  |  | 
O=C(O)c1cc2cccc(O)c2cc1O [DHNA, 3,5-dihydroxy-2-naphthoxylic acid] | 30 |  |  |  |  | 
Cc1cc2c(C(C)C)c(O)c(O)c(C=O)c2c(O)c1-c1c(C)cc2c(C(C)C)c(O)c(O)c(C=O)c2c1O [Gossypol] |  |  |  |  |  | concentration that significantly inhibits LDH activity in B. microti ([2]; in vitro): 592 nM
O=C(O)c1ccccc1Cc1ccc2ccc(O)cc2c1 [TA] |  | 71.6 | 1030 | over a threefold increase in binding capacity; also recorded: more than three times higher affinity | 11.3 | IC50 (B. microti; in vitro culture in mouse erythrocytes, 37 ℃): 122 µM
O=C(O)c1cccc(-c2ccc3ccc(O)cc3c2)c1 [TB] |  | 23.8 | 434 | over a threefold increase in binding capacity; also recorded: more than three times higher affinity | 13.2 | IC50 (B. microti; in Mus musculus): 112 µM
